According to US20180193472A1, “TRANSPORT PEPTIDES FOR TRANSCELLULAR DELIVERY OF BIOLOGICAL AND THERAPEUTIC AGENTS” (priority 2017, published 2018):
Where a SMILES comes first, the peptide text is derived from it. Where no end group is shown, it is not given here. The star is where a group is joined. 5FAM = O=C1OC2(c3ccc(O)cc3Oc3cc(O)ccc32)c2ccc(C(=O)*)cc21

Experiments:
[1] = test system: monolayer of MDCKII cells; test: Transwell apparent permeability (Papp) across a monolayer of MDCKII cells grown on a porous membrane; assay type: in vitro ADME, canine
Description: (§1) The transport peptides of the present invention were identified by modifying peptide sequences and testing these peptides in a Transwell assay measuring in vitro transcellular transport. The Transwell assay consists of two chambers separated from each other by a permeable porous membrane. Cells, most commonly canine kidney epithelial MDCK cells or human intestinal epithelial Caco-2 cells, are grown on the membrane and represent a model biological barrier. The drug, or peptide of interest, is added to the input chamber and the concentration in the receiver chamber is measured after a period of time. The rate at which the drug or peptide permeates across the cells (and the porous membrane) is the rate of drug's concentration increase in the receiver chamber after a period of time. The rate can be calculated and expressed in terms of apparent permeability (Papp), which takes into account the input concentration, the rate of concentration increase in the receiver well, solution volume in the receiver well, and the area of the cell monolayer. Substances with low permeability generally have Papp values on the order of 10^−7 cm/s, and substances with high permeabilities generally have Papp values on the order of 10^−5 cm/s or higher. There are several published reports where the CPPs were investigated for their ability to deliver cargo transcellularly using a Transwell assay: Violini et al reported low permeabilities of 3.1×10^−8 cm/s and 7.4×10^−8 cm/s for TC-radiolabeled Tat 48-57 across Caco-2 and MDCK II cells, respectively.
(§2) The apparent permeabilities (Papp) of four compounds were determined across a monolayer of MDCKII cells, grown on a porous membrane. The four compounds were the following and are represented in FIGS. 2-3: 1) a transport peptide of the present invention, CL, attached to 5-Carboxyfluorescein (MW: 376.3) and designated as [5-FAM]CL peptide, 2) 5-Carboxyfluorescein attached to H3R8 ([5-FAM] H3R8 MW: 2,263.5 and the H3R8 peptide is shown in FIG. 4b) 3) 5-Carboxyfluorescein designated as 5-FAM and 4) Lucifer Yellow designated as LY (MW:457.25, Product Number L-453, Life Technologies). The following concentrations of [5-FAM] CL, [5-FAM] H3R8, 5-FAM, and LY compound were applied to the monolayer of MDCKII cells at approximately 0.2 μM, 0.4-0.9 μM, 4 μM, and 100 μM, respectively. The peptides and dyes were resuspended in HEPES- and glucose-supplemented 1×HBSS buffer. The permeability experiments were conducted for 1 hour at 37° C. Error bars represent standard error (SE). CL and H3R8 are conjugated to 5-FAM at the N-termini. H3R8 is based on oligoarginine CPPs that has been reported to deliver cargo intracellularly. LY is used to assess monolayer integrity (Papp≤10̂−6 cm/s verifies monolayer integrity). The permeability of LY is on the order of 10̂−7 cm/s and is thus consistent with literature values for a monolayer with good barrier properties. [5-FAM]

[2] = as above; assay type: in vitro ADME, canine; conditions: MDCK
Description: as §1, §2

[3] = test system: monolayer of MDCKII cells; assay type: cell-based, canine
Text: The inventors identified cationic transport peptides that are capable of transcellular delivery of cargo across a monolayer of MDCKII cells grown on a porous membranes. One embodiment of the invention is a CL peptide, conjugated to a fluorescent dye 5-FAM (fluorescein), has a Papp value of (1.3±0.2)×10^−5 cm/s, which approaches the permeability rates of the fast-permeating molecules into the brain (Papp ≈10^−5 to 10^−4 cm/s). The CL peptide, conjugated to 5-FAM, enhanced 30-fold the rate of permeation of 5-FAM across the biological barrier. This is especially significant because MDCKII cells are virtually impermeable to 5-FAM (Papp=(4.1±0.6)×10^−7 cm/s) unless it is conjugated to the novel peptide. In addition, the CL peptide was able to deliver 5-FAM without compromising the junctional integrity of the model cell monolayer. Junctional integrity of the monolayer can be measured by transepithelial electrical resistance (TEER), which signifies resistance to the flow of ions across a cell monolayer. If the tight junctions between the cells are compromised, the TEER decreases.
FIG. 3 illustrates the % TEER change in the monolayer of MDCKII cells. Error bars represent SD with n=3 for all except LY, n=6. […] CL and [5-FAM] […] The data indicates the high permeability rates, observed for a transport peptide of the present invention, [5-FAM] […]

HHHRRRRRRRR [H3R8]
ability to deliver 5-FAM across a monolayer of MDCKII cells ([1]; MDCK): not capable to deliver 5-FAM across a monolayer of MDCKII cells

O=C(O)c1ccc2c(c1)C(=O)OC21c2ccc(O)cc2Oc2cc(O)ccc21 [5-FAM, 5-Carboxyfluorescein]
apparent permeability (Papp) ([1]; monolayer of MDCKII cells on porous membrane, 1 hour at 37° C, HEPES- and glucose-supplemented 1×HBSS): (4.1±0.6)×10^−7 cm/s

CC(=O)N[C@@H](CCCCNC(=O)c1ccc2c(c1)C(=O)OC21c2ccc(O)cc2Oc2cc(O)ccc21)C(=O)NCC(=O)N[C@@H](CCCNC(=N)N)C(=O)N[C@@H](CC(C)C)C(=O)N[C@@H](CC(C)C)C(=O)N[C@@H](CCCNC(=N)N)C(=O)N[C@@H](CC(C)C)C(=O)N[C@@H](CC(C)C)C(=O)N[C@@H](CCCNC(=N)N)C(=O)N[C@@H](CCCNC(=N)N)C(=O)N[C@@H](CCCNC(=N)N)C(=O)N[C@@H](CCCNC(=N)N)C(=O)N[C@@H](CCCNC(=N)N)C(=O)N[C@@H](CCCNC(=N)N)C(=O)N[C@@H](CCCNC(=N)N)C(=O)N[C@@H](CCCNC(=N)N)C(N)=O [[5-FAM] CL] (Ac-K(5FAM)GRLLRLLRRRRRRRR-NH2; N-terminus and C-terminus assumed)
Papp [2]: 13 ×10⁻⁶ cm/s | enhancement of the rate of permeation (Papp) relative to 5-FAM ([1]; MDCK): 30 fold | % TEER change after the permeability experiment [3]: did not result in a significant % TEER decrease

Lucifer Yellow [LY]
apparent permeability (Papp) ([1]; MDCK): ~10̂−7 cm/s

KGRLLRLLRRRRRRRR [CL peptide]
% TEER change after the permeability experiment [3]: did not significantly affect the TEER
